Test: solvent given as SMILES

CCCCCCc1ccc(-n2c3[n+](c4c5ccccc5c5ccccc5c42)[B-](C)(C)c2ccccc2-3)cc1
absorption maximum (in C1CCOC1): 359 nm | absorption maximum (in CC#N): 359 nm | absorption maximum (in Cc1ccccc1): 361 nm | absorption maximum (in ClCCl): 361 nm

CCCCn1c2ccc(C#Cc3cccs3)cc2c2c1c1c3ccc(C#Cc4cccs4)cc3n(CCCC)c1c1c3ccc(C#Cc4cccs4)cc3n(CCCC)c21
absorption maximum (in C1CCOC1): 348 nm

COc1ccc(C2=CC3=C(c4c(C)cc(C)cc4C)c4cc(-c5ccc(OC)cc5)c(-c5ccc(OC)cc5)n4[B-](F)(F)[N+]3=C2c2ccc(OC)cc2)cc1
absorption maximum (in C1CCCCC1): 621 nm | absorption maximum (in C1CCOC1): 621 nm | absorption maximum (in CC#N): 608 nm | absorption maximum (in Cc1ccccc1): 625 nm | absorption maximum (in ClCCl): 616 nm

CCN1c2ccc(/C=N/Nc3ccccn3)cc2Sc2cc(-c3ccccc3)ccc21
absorption maximum (in C1CCOC1): 379 nm | absorption maximum (in CS(C)=O): 387 nm | absorption maximum (in Cc1ccccc1): 382 nm | absorption maximum (in ClCCl): 384 nm

C(=C\c1nc2ccccc2o1)/c1ccccc1
absorption maximum (in C1CCCCC1): 320 nm | absorption maximum (in CO): 320 nm

CCN(CC)c1ccc(-c2ccc(-c3nc4ccccc4c(=O)[nH]3)s2)cc1
absorption maximum (in CC#N): 404 nm | absorption maximum (in Cc1ccccc1): 410 nm

CC(=O)c1ccn2c3c(c(-c4cc[n+](C)cc4)c2c1)CN(C)C3=O
absorption maximum (in O): 429 nm

CC[n+]1c(C=C2C(=O)C(C=C3N(C)c4ccccc4C3(C)C)=C2[O-])sc2ccccc21
absorption maximum (in CO): 635 nm | absorption maximum (in ClC(Cl)Cl): 649 nm | absorption maximum (in ClCCl): 650 nm

CC1=[N+]2C(=C(Oc3ccccc3)c3ccc(C)n3[B-]2(F)F)C=C1c1cc2n(c1)[B-](F)(F)[N+]1=CC=CC1=C2c1c(C)cc(C)cc1C
absorption maximum (in C1CCCCC1): 582 nm | absorption maximum (in CCOC(C)=O): 577 nm

CC(=O)c1c2c(c(C(C)=O)c3c1OC(CC(=O)O)O3)OCO2
absorption maximum (in CC#N): 433 nm

N#Cc1cc(N2c3ccccc3Sc3ccccc32)c(N2c3ccccc3Sc3ccccc32)cc1C#N
absorption maximum (in c1ccc2c(c1)c1ccccc1n2-c1ccc(-c2ccc(-n3c4ccccc4c4ccccc43)cc2)cc1): 551 nm

CC(C)(C)c1ccc2c(c1)c1cc(C(C)(C)C)ccc1n2-c1ccc(C#Cc2ccccc2)cc1
absorption maximum (in CC#N): 329 nm | absorption maximum (in CCCCC): 329 nm | absorption maximum (in CO): 329 nm | absorption maximum (in Cc1ccccc1): 335 nm | absorption maximum (in ClC(Cl)Cl): 329 nm | absorption maximum (in ClCCl): 334 nm

CN(CCO)c1ccc(/C=C/C2=C(C#N)C(C(C#N)C#N)OC2(C)C)cc1 (stereo unspecified)
absorption maximum (in CC#N): 586 nm | absorption maximum (in CC(C)=O): 574 nm | absorption maximum (in CCO): 579 nm | absorption maximum (in CCOC(C)=O): 565 nm | absorption maximum (in CN(C)C=O): 588 nm | absorption maximum (in CO): 575 nm | absorption maximum (in CS(C)=O): 595 nm | absorption maximum (in Cc1ccccc1): 562 nm | absorption maximum (in ClCCl): 575 nm | absorption maximum (in O): 587 nm

O=C1NC(c2ccccc2)=N/C1=C\c1ccccc1
absorption maximum (in C1COCCO1): 384 nm

C#Cc1ccc2ccc3oc(=O)cc(C)c3c2c1
absorption maximum (in CCO): 362 nm

O=P1(c2ccccc2)C(c2ccccc2)=Cc2ccccc21 (stereo unspecified)
absorption maximum (in C1CCOC1): 347 nm | absorption maximum (in ClCCl): 350 nm

O=S(=O)([O-])c1cccc2c([O-])cccc12
absorption maximum (in O): 346 nm

CCCCN(CCCC)c1ccc(C#Cc2cc(C#Cc3ccc(N(CCCC)CCCC)cc3)c(C#Cc3cc(C(F)(F)F)cc(C(F)(F)F)c3)cc2C#Cc2cc(C(F)(F)F)cc(C(F)(F)F)c2)cc1
absorption maximum (in ClCCl): 433 nm

CNCCCC1c2ccccc2C=Cc2ccccc21
absorption maximum (in CC#N): 293 nm | absorption maximum (in CO): 293 nm | absorption maximum (in O): 292 nm

Cc1cn(C)c(=O)nc1-n1cncn1
absorption maximum (in O): 323 nm

Cc1ccc2ccc3cccc4ccc1c2c34
absorption maximum (in CCCCCC): 338 nm | absorption maximum (in CO): 338 nm | absorption maximum (in ClCCl): 341 nm

COc1ccc(C#Cc2nc3ccccc3nc2-c2ccn(-c3ccccc3)c2)cc1
absorption maximum (in ClCCl): 393 nm

CCC1=C(C)C2=C(/C=C/Sc3ccccc3)c3c(C)c(CC)c(C)n3[B-](F)(F)[N+]2=C1C
absorption maximum (in ClCCl): 528 nm

CN(C)c1ccc(-c2nc(-c3ccccc3)n3ccccc23)cc1
absorption maximum (in ClC(Cl)Cl): 314 nm

CCOC(=O)c1c(-c2cc3ccccc3oc2=O)nn(-c2cccc(F)c2)c1C(=O)OCC
absorption maximum (in ClCCl): 324 nm

Cc1ccc(-c2ccc(-c3ccc(-c4ccc(C)cc4)cc3/C(=C(/c3ccccc3)c3cc(-c4ccc(C)cc4)ccc3-c3ccc(-c4ccc(C)cc4)cc3)c3ccccc3)cc2)cc1
absorption maximum (in C1CCOC1): 295 nm

c1ccc(C2CCN3COc4c5ccccc5c5c6c7c(c2c3c46)C(c2ccccc2)CCN7CO5)cc1 (stereo unspecified)
absorption maximum (in C1CCCCC1): 403 nm | absorption maximum (in C1CCOC1): 405 nm | absorption maximum (in C1COCCO1): 405 nm | absorption maximum (in CC#N): 405 nm | absorption maximum (in CC(C)=O): 406 nm | absorption maximum (in CCOC(C)=O): 404 nm | absorption maximum (in CCOCC): 404 nm | absorption maximum (in CN(C)C=O): 407 nm | absorption maximum (in CO): 402 nm | absorption maximum (in CS(C)=O): 408 nm | absorption maximum (in Cc1ccccc1): 406 nm | absorption maximum (in ClC(Cl)Cl): 404 nm | absorption maximum (in ClCCl): 405 nm

O=C(c1ccccc1)c1cc2ccc1CCc1ccc(cc1-c1ccc(N(c3ccccc3)c3ccccc3)cc1)CC2
absorption maximum (in Cc1ccccc1): 311 nm

[NH3+]C(Cc1ccccc1)C(=O)[O-] (stereo unspecified)
absorption maximum (in O): 258 nm

CC(C)(C)c1ccc(-c2c(-c3ccc(-n4c5ccccc5c5ccccc54)cc3)cc(-c3ccc(-n4c5ccccc5c5ccccc54)cc3)c(-c3ccc(C(C)(C)C)cc3)c2-c2ccc(C(C)(C)C)cc2)cc1
absorption maximum (in C1CCOC1): 341 nm

CN(C)c1ccc(/C=C/c2cc[n+](CCCCC[n+]3ccc(/C=C/c4ccc(N(C)C)cc4)cc3)cc2)cc1
absorption maximum (in CC1COC(=O)O1): 478 nm | absorption maximum (in CC#N): 478 nm | absorption maximum (in CC(C)=O): 476 nm | absorption maximum (in CC(C)O): 486 nm | absorption maximum (in CCO): 492 nm | absorption maximum (in CN(C)C=O): 478 nm | absorption maximum (in CO): 484 nm | absorption maximum (in CS(C)=O): 479 nm | absorption maximum (in ClC(Cl)Cl): 494 nm | absorption maximum (in O): 457 nm | absorption maximum (in c1ccncc1): 490 nm

c1ccc(N(c2ccccc2)c2c3ccccc3cc3ccccc23)cc1
absorption maximum (in Cc1ccccc1): 428 nm

COc1ccc(N(c2ccc(OC)cc2)c2ccc(-c3ccc(-c4ccc(-c5ccc(-c6ccc(N(c7ccc(OC)cc7)c7ccc(OC)cc7)cc6)s5)c5nsnc45)s3)cc2)cc1
absorption maximum (in ClC(Cl)Cl): 545 nm

c1ccc2c(c1)ccc1ccccc12
absorption maximum (in Cc1ccccc1): 295 nm

c1ccc(-c2nc3ccccc3nc2-c2ccc(-n3c4ccccc4c4ccccc43)cc2)cc1
absorption maximum (in Cc1ccccc1): 345 nm

Nc1ccc(/C=C/c2cccnc2)cc1
absorption maximum (in CC#N): 342 nm | absorption maximum (in CCCCCC): 336 nm

CCC1(CC)c2cc(-c3ccc(N(c4ccc(-c5ccc6c(c5)C(CC)(CC)c5cc(N7c8ccccc8C(C)(C)c8ccccc87)ccc5-6)cc4)c4ccc(-c5ccc6c(c5)C(CC)(CC)c5cc(N7c8ccccc8C(C)(C)c8ccccc87)ccc5-6)cc4)cc3)ccc2-c2ccc(N3c4ccccc4C(C)(C)c4ccccc43)cc21
absorption maximum (in ClC(Cl)Cl): 366 nm

O=c1cccc2n1CN1C=C(Br)C=CC1=N2
absorption maximum (in CO): 436 nm

COc1ccc(/C=C(\C#N)c2nc(-c3ccc(OC)cc3)cs2)cc1
absorption maximum (in CC#N): 380 nm

CCCCCCCCN1C(=O)c2ccc3c4c(-c5ccc6c7ccccc7n(-c7ccccc7)c6c5)cc5c6c(ccc(c7c(-c8ccc9c%10ccccc%10n(-c%10ccccc%10)c9c8)cc(c2c37)C1=O)c64)C(=O)N(CCCCCCCC)C5=O
absorption maximum (in ClC(Cl)Cl): 577 nm

CCN(CC)c1ccc2cc(/C=C/C(O)=C3\CC/C(=C\c4cc5ccc(N(CC)CC)cc5oc4=O)C3=O)c(=O)oc2c1
absorption maximum (in C1COCCO1): 513 nm | absorption maximum (in CC#N): 532 nm | absorption maximum (in CC(C)=O): 526 nm | absorption maximum (in CCOC(C)=O): 516 nm | absorption maximum (in CN(C)C=O): 546 nm | absorption maximum (in CS(C)=O): 556 nm | absorption maximum (in Cc1ccccc1): 511 nm | absorption maximum (in ClC(Cl)Cl): 525 nm

COC(=O)c1ccc(C2=C3C=c4sc(-c5cccs5)cc4=[N+]3[B-](F)(F)n3c2cc2sc(-c4cccs4)cc23)cc1
absorption maximum (in ClCCl): 684 nm

COc1ccc(-c2cc3c(ccc4sc5ccc6sc(-c7ccc(C(C)=O)cc7)cc6c5c43)s2)cc1
absorption maximum (in ClCCl): 380 nm

CC(C)(C)c1ccc(C(C)(C)C)c(N2C(=O)c3cccc4c(-c5ccc(-c6ccc(N(c7ccccc7)c7ccccc7)cc6)s5)ccc(c34)C2=O)c1
absorption maximum (in CO): 447 nm | absorption maximum (in CS(C)=O): 445 nm | absorption maximum (in Cc1ccccc1): 440 nm

O=C(c1cc(F)c(N2CCCCC2)cc1F)c1cc(F)c(N2CCCCC2)cc1F
absorption maximum (in CCO): 354 nm

CC1=[N+]2C(=C(c3ccccc3)c3ccc(/C=C/c4ccc(C(=C(c5ccccc5)c5ccccc5)c5ccccc5)cc4)n3[B-]2(F)F)C=C1
absorption maximum (in C1CCOC1): 585 nm

CC1(C)C(/C=C/C2=C(Cl)C(=C/C=C3/N(CCCS(=O)(=O)[O-])c4ccccc4C3(C)C)/CCC2)=[N+](CCCS(=O)(=O)[O-])c2ccccc21
absorption maximum (in CO): 778 nm

CC(C)(C)[Si](C)(C)c1cccc2ccccc12
absorption maximum (in C1CCCCC1): 295 nm

CC1=CC(C)=[N+]2C1=C(c1ccc(C)cc1)c1c(C)cc(/C=C/c3ccc4ccc5cccc6ccc3c4c56)n1[B-]2(F)F
absorption maximum (in CC1CCCO1): 598 nm

FC(F)(F)c1ccc2oc3nc4oc5ccc(N(c6ccccc6)c6ccccc6)cc5c4cc3c2c1
absorption maximum (in ClC(Cl)Cl): 345 nm

CCC1=C(C2=C(C3=C(CC)S(=O)(=O)c4cc(-c5ccc(C)s5)ccc43)C(F)(F)C(F)(F)C2(F)F)c2ccc(-c3ccc(C)s3)cc2S1(=O)=O
absorption maximum (in C1COCCO1): 374 nm

CC(C)(C)[Si](C)(C)c1ccc([Si](C)(C)C(C)(C)C)c2ccccc12
absorption maximum (in C1CCCCC1): 302 nm

Cc1ccc(C2=C3C=CC4=[N+]3[B-](F)(F)n3c2ccc3-c2ccc([nH]2)/C(c2ccc(C)cc2)=c2/cc/c(o2)=C(\c2ccc(C)cc2)c2ccc4[nH]2)cc1
absorption maximum (in ClC(Cl)Cl): 703 nm

CCN(CC)c1ccc2cc(C#N)c(=N)oc2c1
absorption maximum (in ClCCl): 428 nm

COc1cc(/C=C/c2nc(N3CCOCC3)c3c([n+]2[O-])CCCC3)cc(OC)c1OC
absorption maximum (in ClCCl): 390 nm

N#CSC1=CC2=C(c3ccccc3)c3cc(SC#N)c(N4CCOCC4)n3[B-](F)(F)[N+]2=C1N1CCOCC1
absorption maximum (in CC#N): 588 nm | absorption maximum (in CCCCCC): 599 nm | absorption maximum (in CCOC(C)=O): 593 nm | absorption maximum (in CO): 585 nm | absorption maximum (in ClCCl): 596 nm
